Data reported in patent publication US20030105158A1, “Hydrates of a neuraminic acid compound and crystalline forms thereof” (SANKYO COMPANY, LIMITED, priority 2000, published 2003).
Structures can show the parent of a compound that is named as a salt.

Test: Stability test (storage stability, residual amount by HPLC)
Type: physicochemical
Details: relative to initial content (100%)
Description: In the stability test, the crystals of the compound (I) of the present invention prepared in Example 1 and as reference, the amorphous powder (trifluoroacetate salt) of compound (I) described in Example 35 of the specification of Japanese Patent Application Publication No. Hei 10-330373 were used. These compounds were stored separately at 40° C. in a desiccator with a relative humidity of 75% for 56 days (8 weeks), and the content of these compounds was measured on 14 (2 weeks), 28 (4 weeks) and 56 days (8 weeks) after the initiation of the storage.
Furthermore, these compounds were also stored separately at 60° C. in a desiccator with silica gel for 56 days (8 weeks), and the content of these compounds was measured in the same manner as that described above.
The contents of these compounds were determined quantitatively with high performance liquid chromatography (HPLC), and the amount of the remaining compounds (%) at each sampling point was calculated based on the initial content (100%) determined immediately before the storage.

[1] = stored at 40° C. in a desiccator with a relative humidity of 75%, 14 days
[2] = stored at 40° C. in a desiccator with a relative humidity of 75%, 28 days
[3] = stored at 40° C. in a desiccator with a relative humidity of 75%, 56 days
[4] = stored at 60° C. in a desiccator with silica gel, 14 days
[5] = stored at 60° C. in a desiccator with silica gel, 28 days
[6] = stored at 60° C. in a desiccator with silica gel, 56 days

Row | Residual amount (amount of the remaining compound) [1] | Residual amount (amount of the remaining compound) [2] | Residual amount (amount of the remaining compound) [3] | Residual amount (amount of the remaining compound) (stored at 40° C. in a desiccator with a relative humidity of 75%, 56 days, listed as amorphous powder (trifluoacetate salt) of compound (I)) | Residual amount (amount of the remaining compound) [4] | Residual amount (amount of the remaining compound) [5] | Residual amount (amount of the remaining compound) [6] | Residual amount (amount of the remaining compound) (stored at 60° C. in a desiccator with silica gel, 56 days, listed as amorphous powder (trifluoacetate salt) of compound (I)) | Residual amount (amount of the remaining compound) (stored at 40° C. in a desiccator with a relative humidity of 75%, 56 days, listed as crystals (hydrated crystals) of compound (I)) | Residual amount (amount of the remaining compound) (stored at 60° C. in a desiccator with silica gel, 56 days, listed as crystals (hydrated crystals) of compound (I)) | Compound
1 | 38.5% | 27.2% | 10.2% | 10.2% | 95.7% | 92.9% | 89.0% | 89% |  |  | CCCCCCCC(=O)OC[C@@H](O)[C@@H](OC)[C@@H]1OC(C(=O)O)=C[C@H](NC(=N)N)[C@H]1NC(C)=O [Amorphous powder of compound (I), trifluoroacetate salt of 5-acetamido-4-guanidino-9-O-octanoyl-2,3,4,5-tetradeoxy-7-O-methyl-D-glycero-D-galacto-non-2-enopyranosonic acid]
2 | 99.8% | 100.2% | 100.3% |  | 99.9% | 100.6% | 99.6% |  | 100% | more than 99% | CCCCCCCC(=O)OC[C@@H](O)[C@@H](OC)[C@@H]1OC(C(=O)O)=C[C@H](NC(=N)N)[C@H]1NC(C)=O [Hydrated crystal of compound (I), 5-Acetamido-4-guanidino-9-O-octanoyl-2,3,4,5-tetradeoxy-7-O-methyl-D-glycero-D-galacto-non-2-enopyranosonic Acid Hydrate in Crystalline Form]
